Measured values published in patent US20260102501A1, “ANTI-CANCER NUCLEAR HORMONE RECEPTOR-TARGETING COMPOUNDS” (Nuvation Bio Inc., priority 2022, published 2026).

Assays:
LNCap cells = assay: Cell viability assay (CellTiterGlo); type: cell-based; details: Homo sapiens, 144 h, 6 days incubation, CellTiterGlo, read-out: LNCap (IC50)
IEC6 cells = assay: Cell viability assay (CellTiterGlo); details: Rattus norvegicus, IEC-6, 144 h, read-out: IEC-6 (IC50, nM)
[1] = target: T1, ligand binding domain of the glucocorticoid receptor (HEK293 cells stably expressing) (Homo sapiens, UniProt P04150); assay: GR antagonism assay (luciferase reporter)
T1 sequence (P04150 524-758 limits assumed): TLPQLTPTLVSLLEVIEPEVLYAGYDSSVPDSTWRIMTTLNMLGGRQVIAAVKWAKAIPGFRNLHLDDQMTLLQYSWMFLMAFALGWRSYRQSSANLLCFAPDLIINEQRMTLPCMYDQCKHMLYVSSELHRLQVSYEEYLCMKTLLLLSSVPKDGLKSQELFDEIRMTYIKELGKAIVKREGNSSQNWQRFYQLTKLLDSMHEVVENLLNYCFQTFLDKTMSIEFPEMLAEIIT
Experimental: HEK293 cells stably expressing the ligand binding domain of the glucocorticoid receptor were seeded at a density of 40000 cells/well in the assay plate. The assay plate was then incubated at 37° C., 5% CO2 for 30 minutes. Dexamethasone was added to the assay plate at 1.5 nM final concentration and the assay plate incubated at 37° C., 5% CO2 for 20 h. After the incubation period, Dual-glo luciferase reagent was added to the assay plate and mixed at room temperature for 20 minutes on an orbital shaker, before reading out on the En Vision plate reader. 50 μL of Stop & Glo reagent was added to assay plate, mixed at room temperature for 20 minutes, and read on the Envision plate reader.

[2] = target: T2, GR (cytosol from IM-9 cells) (Homo sapiens, UniProt P04150); assay: GR binding assay (3H-Dexamethasone displacement)
T2 sequence (P04150 1-777): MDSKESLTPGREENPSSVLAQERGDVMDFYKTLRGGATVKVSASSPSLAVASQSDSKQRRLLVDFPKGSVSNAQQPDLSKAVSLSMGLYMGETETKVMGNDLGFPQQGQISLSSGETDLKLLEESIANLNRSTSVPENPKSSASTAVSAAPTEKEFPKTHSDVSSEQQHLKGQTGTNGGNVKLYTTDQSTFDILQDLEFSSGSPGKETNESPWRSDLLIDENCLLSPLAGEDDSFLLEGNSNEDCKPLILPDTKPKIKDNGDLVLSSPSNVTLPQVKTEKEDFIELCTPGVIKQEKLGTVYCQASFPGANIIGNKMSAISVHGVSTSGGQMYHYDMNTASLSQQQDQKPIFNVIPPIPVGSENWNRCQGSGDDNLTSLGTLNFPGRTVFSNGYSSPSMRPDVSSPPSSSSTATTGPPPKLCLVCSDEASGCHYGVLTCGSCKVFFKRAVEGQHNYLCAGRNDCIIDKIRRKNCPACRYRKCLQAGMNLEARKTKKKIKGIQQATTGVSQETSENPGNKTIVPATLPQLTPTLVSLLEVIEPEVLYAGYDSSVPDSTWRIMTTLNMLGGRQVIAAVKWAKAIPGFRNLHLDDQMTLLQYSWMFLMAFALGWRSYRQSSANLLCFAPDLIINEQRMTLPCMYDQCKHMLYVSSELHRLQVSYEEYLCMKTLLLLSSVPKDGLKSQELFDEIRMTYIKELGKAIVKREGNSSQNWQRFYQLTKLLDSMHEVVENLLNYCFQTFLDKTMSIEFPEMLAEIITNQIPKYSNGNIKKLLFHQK

[3] = target: T3, Progesterone PR-B receptors from human breast carcinoma T47D cells (Homo sapiens, UniProt P06401); assay: PR binding assay ([3H] Progesterone displacement)
T3 sequence (P06401 1-933): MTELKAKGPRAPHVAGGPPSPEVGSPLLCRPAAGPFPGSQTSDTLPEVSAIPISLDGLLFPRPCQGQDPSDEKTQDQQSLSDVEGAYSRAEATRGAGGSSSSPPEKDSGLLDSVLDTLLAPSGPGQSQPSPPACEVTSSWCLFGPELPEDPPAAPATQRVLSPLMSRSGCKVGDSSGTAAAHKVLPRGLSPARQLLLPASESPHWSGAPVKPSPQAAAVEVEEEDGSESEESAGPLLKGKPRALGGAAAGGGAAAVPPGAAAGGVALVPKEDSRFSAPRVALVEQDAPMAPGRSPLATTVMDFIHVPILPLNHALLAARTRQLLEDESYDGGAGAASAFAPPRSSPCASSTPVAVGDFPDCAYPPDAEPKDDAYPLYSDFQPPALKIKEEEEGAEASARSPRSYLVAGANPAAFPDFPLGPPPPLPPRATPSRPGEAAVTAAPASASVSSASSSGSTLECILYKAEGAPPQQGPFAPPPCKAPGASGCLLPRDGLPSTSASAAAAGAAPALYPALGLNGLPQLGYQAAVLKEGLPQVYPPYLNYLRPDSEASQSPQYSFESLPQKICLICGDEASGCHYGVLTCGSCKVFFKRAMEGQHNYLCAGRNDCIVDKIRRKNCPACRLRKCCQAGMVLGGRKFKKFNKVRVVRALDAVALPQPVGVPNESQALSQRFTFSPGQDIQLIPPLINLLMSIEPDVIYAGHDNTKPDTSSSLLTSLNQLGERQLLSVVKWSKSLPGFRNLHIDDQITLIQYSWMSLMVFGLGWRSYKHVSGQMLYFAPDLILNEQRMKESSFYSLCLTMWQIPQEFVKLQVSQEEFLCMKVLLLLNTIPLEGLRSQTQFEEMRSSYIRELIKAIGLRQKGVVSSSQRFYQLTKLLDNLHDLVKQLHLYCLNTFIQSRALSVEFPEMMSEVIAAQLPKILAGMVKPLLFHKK

CC[C@@]1(O)C(=O)OCc2c1cc1n(c2=O)Cc2c-1nc1cc(F)c(C)c3c1c2[C@@H](N(C)C(=O)COCC1CCN(CCCCCCCN(C)c2ccc([C@H]4C[C@@]5(C)[C@@H](CC[C@]5(OC(C)=O)C(C)=O)[C@@H]5CCC6=CC(=O)CCC6=C54)cc2)CC1)CC3 [Compound 55, (8S,11R,13S,14S,17R)-17-acetyl-11-(4-((7-(4-((2-(((1S,9S)-9-ethyl-5-fluoro-9-hydroxy-4-methyl-10,13-dioxo-2,3,9,10,13,15-hexahydro-1H,12H-benzo[de]pyrano[3′,4′:6,7]indolizino[1,2-b]quinolin-1-yl)(methyl)amino)-2-oxoethoxy)methyl)piperidin-1-yl)heptyl)(methyl)amino)phenyl)-13-methyl-3-oxo-2,3,6,7,8,11,12,13,14,15,16,17-dodecahydro-1H-cyclopenta[a]phenanthren-17-yl acetate]
IC50 (LNCap cells): 101 to 1000 nM | IC50 (IEC6 cells): > 1000 nM | IC50 [1]: 10 to 100 nM | IC50 [2]: < 10 nM | IC50 [3]: < 10 nM
